# pIC50: −log10 of the molar value.
# Assays:
# [1] = tested on: HaCaT cells; test: In vitro cell cytotoxicity (MTT) assay on HaCaT cells; assay type: cell-based, human; conditions: Homo sapiens, HaCaT; 72 h incubation; MTT
# Procedure, shortened: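 HaCaT keratinocytes seeded at 5×10^3/well, after 24 h exposed 72 h to test compounds serially diluted from 500 μM to 1.9 μM in 10% FBS DMEM. MTT (1 mg/ml, 4 h) read at 570 nm; viability expressed as percent of untreated control.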
# [2] = tested on: IL-8; test: IL-8 ELISA on THP-1 cell supernatants; assay type: cell-based, human; conditions: preliminary ELISA, CV75
# Procedure: For cytokine profiling in THP-1, supernatants from wells were collected and then used for cytokine analysis by a Chemokine immunosorbent assay Bio-legend ELISA Max kit. The levels of available IL-8 protein from THP-1 cell supernatants was estimated using this kit which are regulated upon activation of THP-1 model. Surface receptor expression of human CD-86, CD-54, MHC-I and IL-T3 were analyzed by flow cytometry using standard BD FACS analyzer with PE and FITC fluorescent labeled antibodies from Biolegend and e Bioscience.
# In order to understand the effect of modified PPD hairdyes on THP-1 immune sensitization, a certain degree of Cytotoxicity at CV75% viable where 25% cell death is required before evaluation of supernatants in THP-1 models for expression of cytokine IL-8 and receptor expression of CD86, CD54, MHC-I and IL-T3 surface receptors upon treatment with standard PPD and modified hair dye compounds. Most allergens show a specific dose-dependent alteration of CD86 and/or CD54 expression or secretion of cytokine profiles. But depending on chemical, the alteration pattern may vary.
# [3] = Skin permeation in vertical Franz diffusion cells; assay type: in vitro ADME, porcine
# Procedure, shortened: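 Dermatomed porcine ear skin (~1.0 mm, barrier checked by TEWL) in vertical Franz cells at 37 °C, 0.64 cm^2 area, PBS receptor, donor of 1% w/v solutions in argon-purged water (n=3). Receptor sampled over 8 h with mass balance, LCMS quantification; flux and permeability coefficients from steady-state Fick's law fits.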
# [4] = Oxidation stability of 1% PPD patch test formulation in paraffin (mass spectrometry); assay type: physicochemical; conditions: several days in air
# Text: This is true even after 2 days of patch test as the test field remains colourless.
# [5] = tested on: cysteine and lysine peptides; test: Direct Peptide Reactivity Assay, mean of cysteine and lysine depletion (FIG. 12)
# Procedure: Direct reactivity of test chemical to lysine-based synthetic peptide was determined in reactions containing 100 mM ammonium acetate buffer (pH 10.2). The final concentration of lysine peptide was 20 μM in a final reaction volume of 0.3 ml. Direct reactivity of test chemicals to cysteine-based synthetic peptide was determined in 100 mM Sodium Phosphate buffer of pH 7.5.
# For the DPRA, incubation mixtures were prepared using each peptide to test compound ratios of both 1:10 for cysteine peptide and 1:50 for lysine peptide, according to Table 19. […] Sample reactions were initiated by adding 3 μl of a test chemical stock solution for cysteine and 15 μl stock solution for lysine peptide. These mixtures were then placed in a temperature-controlled shaking incubator at 25° C.
# At each time point (20 mins/24 hours), the incubation mixtures were quenched with 75 μL of 95% ACN/H2O, and mildly vortexed (600 rpm, 3 seconds). For Lysine DPRA experiment, 10 μl of aliquot was diluted with 2% ACN/H2O, vortexed and stored at −80° C. until analysis by LC-MS/MS. For cysteine DPRA, an additional step was performed. 10 μl of cysteine reaction mixture, at time points 20 min and 24 h were diluted in 180 μl of 2% ACN/H2O. To which, a 10 μl aliquot of a 16 mM dithiothreitol solution (prepared in water) was then added, and samples were heated in a 45° C. oven for 30 min, then allowed to cool to room temperature prior to analysis. The peptide depletion (PD) percentage was obtained using this equation.
smiles,measurement,setting,value
"Nc1ccc(N)cc1 [PPD, para-phenylenediamine, reference compound]",pIC50,[1],4.63
same,IL-8 expression,[2],increased expression
same,% Parent compound Penetrated (mean),"[3]; 1% W/V applied, 8 h",0.162%
same,% converted to metabolite (mean),"[3]; 1% W/V applied, 8 h",3.17%
same,Mass balance in the Franz cells,[3]; 8 h,> 99%
same,Jss · 10^4 (steady state flux),[3]; mean,4.3 mg cm^−2 h^−1
same,tlag (lag time),[3]; mean,4.2 h
same,"recovery at 8 h, 1 % w/v","[3]; pig, 1% W/V applied, 8 h, read-out: % Parent compound Recovery (mean)",90.3%
same,"Papp at 8 h, 1 % w/v","[3]; pig, mean, read-out: kp · 10^5 (steady state permeability coefficient) (converted)",1190 ×10⁻⁶ cm/s
same,Dm · 10^4 (diffusion coefficient in skin),"[3]; steady state, mean",5.00 cm^−2 h^−1
same,Ks/d (skin-donor partition coefficient),"[3]; steady state, mean, 1% w/v in water, 8 h",0.010
same,Oxidation stability in paraffin,[4],protected against oxidation
same,Sensitizing potential predicted from mean peptide depletion,[5]; cysteine 1:10 / lysine 1:50 model,strong sensitizer
same,Mean peptide depletion,"[5]; mean of cysteine (1:10) and lysine (1:50), FIG. 12",55.5%

# From patent US11129782B2, “Derivatives of PPD useful for coloring hair and skin” (National University of Singapore, priority 2017, dated 2021)
